From the METLIN SMRT retention time set (Domingo-Almenara et al. 2019)

assay: gradient 5% acetonitrile 3 min, to 50% in 2 min, to 85% in 15 min, held 3 min, 100 µL/min; conditions: column: Zorbax Extend-C18 2.1 x 50 mm; eluents: water / acetonitrile, 0.1% formic acid
Summary of the method: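 Retention times come from adduct peaks that were picked computationally and then checked by hand. The standards, pure and pooled in mixtures of ~100 molecules, were run on a Zorbax Extend-C18 column (2.1 × 50 mm, 1.8 μm) at 100 μL/min with water and acetonitrile, each with 0.1% formic acid. Detection was by quadrupole time-of-flight mass spectrometry in positive and negative ionization mode, with a dead volume of 40 μL and a dwell volume of 900 μL.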

Row | Compound | RP-LC retention time
1 | COc1ccc(N2C=C(C(=O)N3CCOCC3)S(=O)(=O)c3ccc(F)cc32)cc1Cl | 762 s
2 | Cc1nc(-c2ccc3c(c2)CCN3C(=O)Cc2cccc(F)c2)no1 | 923 s
3 | Cc1ccc(NC(=O)C2CCCN(c3ncnc4c3nc3n4CCCCC3)C2)cc1C (stereo unspecified) | 870 s
4 | Cc1ccc(NC(=O)NCCCn2c(C(F)(F)F)nc3cccnc32)cc1F | 866 s
5 | O=C(CN1CCCCC1c1nc(C2CC2)no1)Nc1ccccn1 (stereo unspecified) | 734 s
6 | CCOc1ccc(CNC(=O)c2cn3c(n2)CCCC3)cc1 | 606 s
7 | CCN1C(=O)c2cc(C(=O)NCc3ccccc3C)nn2CC1(C)C(=O)NC1CCCC1 (stereo unspecified) | 884 s
8 | Cc1nnc(N2CCN(C(=O)Nc3ccc4c(c3)OCCO4)CC2)c2nn(-c3ccccc3)c(C)c12 | 679 s
9 | OC1(c2ccccn2)CCOC2(CCN(Cc3cccc(Cl)c3F)CC2)C1 (stereo unspecified) | 576 s
10 | CS(=O)(=O)N1C[C@@H](COc2cccnc2)[C@H](c2ccccn2)C1 | 554 s
11 | CC(C)n1cnc(S(=O)(=O)N2CCCC(C(=O)Nc3ccc(Br)cc3F)C2)c1 (stereo unspecified) | 893 s
12 | CCCNc1cc(N2CCC(CCC(=O)NCc3ccc(N4CCOCC4)cc3)CC2)ncn1 | 631 s
13 | CC1=NS(=O)(=O)N(C)C=C1C(=O)OCc1c(C)noc1C | 776 s
14 | COc1cc(OC)cc(-c2nc(-c3cn(Cc4ccc(C)cc4)nn3)no2)c1 | 1090 s
15 | CCOC(=O)c1noc2nc(C)nc(N3CCN(c4cccc(Cl)c4)CC3)c12 | 1220 s
16 | CC(C)CNC(=O)N1C[C@@H]2CCCN3CCC[C@@H]([C@H]23)[C@H]1CCCC(=O)NCC1CC1 | 603 s
17 | Cc1cc(N2CCN(S(=O)(=O)c3ccc(F)c(F)c3)CC2)nc(N2CCCCC2)n1 | 775 s
18 | O=C(Nc1ccc(F)cc1)C1(c2cccs2)CCOCC1 | 798 s
19 | Cc1noc2ncn(CC(=O)NCc3cccc(F)c3)c(=O)c12 | 712 s
20 | CC(C)c1noc(-c2ccc(-n3cnc(C(=O)N4CCSCC4)c3)nc2)n1 | 863 s
21 | Cc1ccc(-c2ccc(N3CCCC(C(=O)Nc4ccc5c(c4)OCO5)C3)nn2)cc1 (stereo unspecified) | 753 s
22 | CCCN1C(=O)c2c(C(=O)NCc3ccccc3)ncn2CC1(C)C(=O)NC1CCCC1 (stereo unspecified) | 756 s
23 | CCOc1ccc(-c2noc(Cc3nnc(-c4cccc(F)c4)o3)n2)cc1 | 1090 s
24 | CN1CCN(c2nc3ccc(NC(=O)C4CC(=O)N(c5ccccc5)C4)cc3s2)CC1 (stereo unspecified) | 561 s
25 | CCc1noc(NC(C)=O)c1-c1ccc(C)c(S(=O)(=O)Nc2ccc(C)cc2Br)c1 | 919 s

Other lines, results leading:

Row | RP-LC retention time | Compound
26 | 1150 s | CCCC(=O)N1CCc2c([nH]c3ccccc23)C1c1cccc(OCC)c1 (stereo unspecified)
27 | 921 s | O=C(CN1C(=O)C2CCCCN2c2ccc(S(=O)(=O)N3CCCC3)cc21)NCc1ccccc1 (stereo unspecified)
28 | 842 s | CCn1cc(-c2ccc(OC)cc2)cc1C(=O)N(C)C
29 | 785 s | COc1ccc(S(=O)(=O)N(C(C)=O)c2ccccc2/C=C/c2cc[n+]([O-])cc2)cc1
30 | 680 s | CCc1nnc(NS(=O)(=O)c2ccc(NC(=O)c3ccco3)cc2)s1
31 | 976 s | COC(=O)C1=C(COc2ccc(C)cc2)NC(=O)NC1c1ccc(OC)c(OC)c1 (stereo unspecified)
32 | 731 s | O=C(NCCCN1CCCC1=O)c1ccc2nc(Cc3ccccc3)oc2c1
33 | 894 s | CCOc1ccc(CNC(=O)Cn2ccc3ccc(N4CCOCC4)nc32)cc1
34 | 817 s | O=C(NCc1cccs1)c1ccc2c(c1)CC(=O)N2Cc1ccccc1
35 | 998 s | Cc1ccc2ncn(C3CCN(S(=O)(=O)c4ccc(C)c(C)c4)CC3)c(=O)c2c1
36 | 1210 s | COc1cccc(OC(=O)c2cn(CC(C)C)c(=O)c3ccccc23)c1
